Laboratory results published in patent US20160222014A1, “COMPOUNDS FOR REGULATING FAK AND/OR SRC PATHWAYS” (ASANA BIOSCIENCES, LLC, priority 2013, published 2016).

How the values were obtained:
Phospho Src(Y416) = target: T1, Phospho Src(Y416) (Homo sapiens, UniProt P12931); assay: Phospho Src(Y416) Sandwich ELISA; format: cell-based; settings: Panc1; read-out: pSrc EC50 (μM) Panc1
T1 construct: endogenous in cells; host or cells: Panc1
Protocol: E. Phospho Src(Y416) Sandwich ELISA
Phospho Src(Y416) Sandwich ELISA kit was obtained from Cell Signaling Tech.
(i) Reagent Preparation • 1. All microwell strips were brought to rt before use. • 2. 1× Wash Buffer was prepared by diluting 20× Wash Buffer (included in each PathScan® Sandwich ELISA Kit) in MilliQ® water or equivalently purified water. • 3. 1× Cell Lysis Buffer from CST #9803: 20 mM Tris (pH 7.5), 150 mM NaCl, 1 mM ethylene diamine tetraacetate (EDTA), 1 mM ethylene glycol-bis(2-aminoethyl)-N,N,N′,N′-tetraacetic acid (EGTA), 1% Triton™ X-100, 2.5 mM sodium pyrophosphate, 1 mM b-glycerophosphate, 1 mM Na3VO4, 1 μg/mL leupeptin. This buffer was stored at 4° C. for short-term use (1-2 weeks).
(ii) Preparing Cell Lysates • 1. The media was aspirated. The cells were treated by adding fresh media containing inhibitor for 1 h. The compound of Example 214 was used as reference. • 2. The cells were harvested under non-denaturing conditions by removing media and rinsing cells once with ice-cold PBS. • 3. PBS was removed, 0.5 mL ice-cold 1× Cell Lysis Buffer plus 1 mM phenylmethylsulfonylfluoride (PMSF) was added to each plate (10 cm in diameter) and the plate incubated on ice for 5 min. • 4. The cells were scraped off of the plate, transferred to an appropriate tube, and kept on ice. • 5. The lysates were sonicated on ice. • 6. Microcentrifugation was performed for 10 min at 4° C. and the supernatant transferred to a new tube. The supernatant was the cell lysate and was stored at −80° C. in single-use aliquots.
(iii) Test Procedure • 1. After the microwell strips reached rt, the required number of microwells were broken off. The microwells were placed in the strip holder. Unused microwells were resealed and stored at 4° C. immediately. • 2. 100 μL of Sample Diluent (supplied in each PathScan® Sandwich ELISA Kit, blue color) was added to a micro centrifuge tube. 100 μL of cell lysate was transferred into the tube and vortexed for a few seconds. […] Individual data sheets for each kit provided information regarding an appropriate dilution factor for lysates and kit assay results. However, dilution factors were titrated when specific cell lysates are used. • 3. 100 μL of each diluted cell lysate were added to the appropriate well. It was then sealed with tape and pressed firmly onto top of microwells. The plate was incubated for 2 h at 37° C. Alternatively, the plate was incubated overnight at 4° C., which gave the best detection of target protein. • 4. The tape was gently removed and the wells washed: • a. The plate contents were discarded into a receptacle. • b. Each well was washed 4 times with 1× Wash Buffer, 200 μL. • c. For each wash, plates were struck on fresh towels hard enough to remove the residual solution in each well, but wells were not allowed to completely dry at any time. • d. The underside of all wells was cleaned with a lint-free tissue. • 5. 100 μL of Detection Antibody (green color) was added to each well, sealed with tape and the plate incubated for 1 h at 37° C. • 6. The wash procedure was repeated as in Step 4. • 7. 100 μL of HRP-linked secondary antibody (red color) was added to each well, sealed with tape and the plate incubated plate for 30 min at 37° C. • 8. The wash procedure was repeated as in Step 4. • 9. 100 μL of TMB Substrate was added to each well, sealed with tape and the plate incubated for 10 min at 37° C. or 30 min at 25° C. • 10. 100 μL of STOP Solution was added to each well and shaken gently for a few seconds. Initial color of positive reaction was blue, which changed to yellow upon addition of STOP Solution. • 11. The results were read. • a. Visual Determination—read within 30 min after adding STOP Solution. • b. Spectrophotometric Determination—the underside of wells were wiped with a lint-free tissue and absorbance read at 450 nm within 30 min after adding STOP Solution.

[1] = target: T2, FAK phosphorylated at Y397 in HEK-FAK cell line overexpressing human FL FAK protein (Homo sapiens, UniProt Q05397); assay: Cell based assay, Phospho-FAK ELISA; settings: HEK stb; read-out: pFAK EC50 (μM) HEK stb
T2 construct: expressed in transfected cells
Procedure, shortened: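 Stable HEK293 line overexpressing full-length human FAK, kept under 0.8 mg/mL Zeocin. In lysates, FAK Y397 autophosphorylation was measured by sandwich ELISA: total-FAK capture antibody, biotinylated pY397-specific detection antibody, streptavidin-HRP with TMB substrate.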

Recombinant Src enzyme = target: T3, Recombinant Src enzyme (Homo sapiens, UniProt P12931); assay: Src HTRF assay; format: biochemical
T3 construct: purchased Millipore 14-326; host or cells: Sf21 insect cells
Procedure, shortened: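 Run as for the FAK HTRF assay (same buffer, supplements, compound preparation and procedure), with dasatinib included. Reaction contained 0.5 μM biotin-tagged Tyk2 synthetic peptide, 5 nM Src made in Sf21 cells, and a pH7.4-buffer-prepared component at 10 μM final.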

AURKB (Aurora B) enzyme = target: T4, AURKB (Aurora B) enzyme (Homo sapiens, UniProt Q96GD4); assay: Aurora B HTRF assay; format: biochemical; settings: read-out: AuroraB IC50
T4 construct: purchased Invitrogen PVR 130
Procedure, shortened: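 Enzyme (5 nM final) and ULight-labelled PLK Ser137 peptide (50 nM) reacted 1 h at room temperature; a 30 μM final component was also present. Detection used EDTA-containing buffer with europium anti-phospho-PLK(Ser137) antibody at 2 nM, 1 h, then time-resolved FRET readout.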

JAK2 = JAK2 (Homo sapiens, UniProt O60674); assay: JAK2 biochemical potency; settings: read-out: JAK2 HTRF IC50
recombinant human FAK1 = target: T5, recombinant human FAK1 (Homo sapiens, UniProt Q05397); assay: FAK1 HTRF assay; format: biochemical
T5 construct: fused on or other part: N-terminal 6xHis tag
Procedure, shortened: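 IC50 values derive from HTRF % inhibition (ratio 665/620 nm, Eu–anti-phosphotyrosine 0.1 nM, SA-APC 12 nM). The kinase step ran 45 min at room temperature, pairing 10 nM His-FAK1(692–end) from baculovirus with 0.5 μM gastrin Tyr87 biotin-peptide and a reagent at 10 μM final, pH 7.4. Compound dilutions began at 10 μM.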

T2 sequence (Q05397 whole entry): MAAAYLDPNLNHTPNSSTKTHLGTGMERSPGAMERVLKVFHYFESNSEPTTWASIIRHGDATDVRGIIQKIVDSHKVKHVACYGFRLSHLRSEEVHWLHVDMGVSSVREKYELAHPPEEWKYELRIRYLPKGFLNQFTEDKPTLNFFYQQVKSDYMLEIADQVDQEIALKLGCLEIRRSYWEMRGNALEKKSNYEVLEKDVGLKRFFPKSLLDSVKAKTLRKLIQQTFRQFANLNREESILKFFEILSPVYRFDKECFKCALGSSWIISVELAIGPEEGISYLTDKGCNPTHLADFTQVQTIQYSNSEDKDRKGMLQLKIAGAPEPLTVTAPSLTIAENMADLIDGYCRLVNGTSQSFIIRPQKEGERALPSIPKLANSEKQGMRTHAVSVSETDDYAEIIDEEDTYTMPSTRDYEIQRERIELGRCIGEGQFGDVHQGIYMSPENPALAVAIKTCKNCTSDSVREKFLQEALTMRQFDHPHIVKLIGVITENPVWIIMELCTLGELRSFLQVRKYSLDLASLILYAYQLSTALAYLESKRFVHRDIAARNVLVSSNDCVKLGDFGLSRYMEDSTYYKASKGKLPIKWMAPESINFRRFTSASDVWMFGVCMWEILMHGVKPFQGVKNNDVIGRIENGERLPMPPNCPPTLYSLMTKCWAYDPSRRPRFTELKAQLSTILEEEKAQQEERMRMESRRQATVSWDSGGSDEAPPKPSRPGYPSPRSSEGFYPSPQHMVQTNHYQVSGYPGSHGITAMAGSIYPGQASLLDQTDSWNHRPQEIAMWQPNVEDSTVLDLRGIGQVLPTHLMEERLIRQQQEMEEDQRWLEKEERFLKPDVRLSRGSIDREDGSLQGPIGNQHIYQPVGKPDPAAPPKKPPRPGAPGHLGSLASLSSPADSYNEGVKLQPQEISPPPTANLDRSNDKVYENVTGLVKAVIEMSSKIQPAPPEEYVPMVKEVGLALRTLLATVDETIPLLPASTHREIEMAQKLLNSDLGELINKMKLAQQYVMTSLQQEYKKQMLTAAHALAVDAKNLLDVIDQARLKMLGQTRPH
T4 sequence (Q96GD4 whole entry): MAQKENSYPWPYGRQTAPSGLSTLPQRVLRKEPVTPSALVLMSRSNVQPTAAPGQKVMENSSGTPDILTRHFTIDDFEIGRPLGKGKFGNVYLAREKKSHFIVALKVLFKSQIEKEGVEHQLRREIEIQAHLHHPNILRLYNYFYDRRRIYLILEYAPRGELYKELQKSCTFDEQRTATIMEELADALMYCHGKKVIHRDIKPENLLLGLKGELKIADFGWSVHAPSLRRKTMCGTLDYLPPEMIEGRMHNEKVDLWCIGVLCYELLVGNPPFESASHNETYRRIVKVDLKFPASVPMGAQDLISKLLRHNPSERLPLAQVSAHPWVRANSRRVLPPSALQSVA
T1 sequence (P12931 whole entry): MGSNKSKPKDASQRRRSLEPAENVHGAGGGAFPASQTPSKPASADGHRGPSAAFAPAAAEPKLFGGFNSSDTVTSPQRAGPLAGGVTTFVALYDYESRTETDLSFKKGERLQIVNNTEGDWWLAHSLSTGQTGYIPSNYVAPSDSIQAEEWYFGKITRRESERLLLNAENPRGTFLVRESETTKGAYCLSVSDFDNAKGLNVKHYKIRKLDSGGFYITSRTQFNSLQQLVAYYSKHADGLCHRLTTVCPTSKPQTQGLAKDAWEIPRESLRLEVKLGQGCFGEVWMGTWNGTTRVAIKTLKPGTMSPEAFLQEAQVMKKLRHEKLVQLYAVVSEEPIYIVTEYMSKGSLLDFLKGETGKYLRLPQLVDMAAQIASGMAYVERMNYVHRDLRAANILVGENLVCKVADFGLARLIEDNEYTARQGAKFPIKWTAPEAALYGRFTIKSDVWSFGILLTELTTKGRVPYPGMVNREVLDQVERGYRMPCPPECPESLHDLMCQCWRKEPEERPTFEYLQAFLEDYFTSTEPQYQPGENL
T3 sequence (P12931 whole entry): as above
T5 sequence (Q05397 422-680 limits assumed): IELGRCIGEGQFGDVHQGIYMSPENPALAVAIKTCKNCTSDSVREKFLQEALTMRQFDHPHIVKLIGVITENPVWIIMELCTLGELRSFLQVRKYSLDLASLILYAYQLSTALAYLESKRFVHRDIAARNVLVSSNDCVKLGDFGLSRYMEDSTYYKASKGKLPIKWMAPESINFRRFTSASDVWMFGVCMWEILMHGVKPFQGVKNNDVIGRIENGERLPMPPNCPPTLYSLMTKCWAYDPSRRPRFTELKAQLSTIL
JAK2, sequence (O60674 whole entry, species assumed): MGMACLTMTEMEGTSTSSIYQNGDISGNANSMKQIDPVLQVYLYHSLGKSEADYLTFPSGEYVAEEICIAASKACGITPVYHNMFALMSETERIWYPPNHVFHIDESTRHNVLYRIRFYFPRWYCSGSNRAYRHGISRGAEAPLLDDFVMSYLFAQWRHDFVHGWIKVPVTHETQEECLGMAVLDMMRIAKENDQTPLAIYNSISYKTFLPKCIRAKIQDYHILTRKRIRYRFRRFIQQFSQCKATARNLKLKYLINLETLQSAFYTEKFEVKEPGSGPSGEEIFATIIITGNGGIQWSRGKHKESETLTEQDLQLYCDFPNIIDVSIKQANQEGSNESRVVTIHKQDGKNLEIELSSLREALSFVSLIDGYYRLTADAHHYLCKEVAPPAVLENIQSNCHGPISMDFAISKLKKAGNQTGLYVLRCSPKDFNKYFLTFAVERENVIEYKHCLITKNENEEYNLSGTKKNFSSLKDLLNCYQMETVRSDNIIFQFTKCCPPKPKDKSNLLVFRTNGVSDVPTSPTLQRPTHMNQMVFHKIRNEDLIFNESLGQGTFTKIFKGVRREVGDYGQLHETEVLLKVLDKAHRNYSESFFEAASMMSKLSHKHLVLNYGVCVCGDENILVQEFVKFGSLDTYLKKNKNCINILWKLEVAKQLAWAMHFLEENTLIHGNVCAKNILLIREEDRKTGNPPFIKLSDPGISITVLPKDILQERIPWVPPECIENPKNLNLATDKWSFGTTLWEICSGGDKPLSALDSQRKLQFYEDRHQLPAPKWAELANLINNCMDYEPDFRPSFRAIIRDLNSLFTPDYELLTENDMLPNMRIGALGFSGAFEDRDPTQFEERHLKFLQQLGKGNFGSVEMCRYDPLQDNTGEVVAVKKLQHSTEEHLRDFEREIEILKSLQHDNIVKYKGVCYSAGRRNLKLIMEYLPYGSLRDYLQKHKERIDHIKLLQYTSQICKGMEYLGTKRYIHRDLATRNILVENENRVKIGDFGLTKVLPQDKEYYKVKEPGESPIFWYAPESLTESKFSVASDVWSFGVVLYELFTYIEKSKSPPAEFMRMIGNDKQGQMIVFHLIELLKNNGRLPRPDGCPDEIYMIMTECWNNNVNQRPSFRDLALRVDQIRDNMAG

Structure (SMILES) | EC50 (Phospho Src(Y416)) [µM] | EC50 [1] [µM] | IC50 (Recombinant Src enzyme) [µM] | IC50 (AURKB (Aurora B) enzyme) [µM] | IC50 (JAK2) [µM] | IC50 (recombinant human FAK1) [µM]
CN(c1ncccc1Cn1ccc2cnc(Nc3ccc(N4CCC(CO)CC4)cc3)nc21)S(C)(=O)=O [Example 559] | > 1 | > 1 | – | – | – | –
CN(c1ncccc1Cn1ccc2cnc(Nc3ccc(N4CCCC(O)C4)cc3)nc21)S(C)(=O)=O (centres unmarked) [Example 753] | > 1 | – | – | – | – | –
CN(C)C1CN(c2ccc(Nc3ncc4ccn(Cc5cccnc5N(C)S(C)(=O)=O)c4n3)cc2F)C1 [Example 605] | > 1 | > 1 | – | – | – | –
O=C1CCc2cc(Nc3cc4c(cn3)cnn4Cc3ccccc3OC(F)F)ccc2N1 [Example 65] | > 1 | – | < 0.02 | > 1 | – | –
O=S(=O)(c1ccccc1)n1ncc2cnc(Nc3ccc(N4CCNCC4)cc3)nc21 [Example 255] | < 0.02 | – | – | – | – | –
N#Cc1ccccc1S(=O)(=O)n1ccc2cnc(Nc3ccc(C4CCN(CC(N)=O)CC4)cc3)nc21 [Example 251] | > 1 | – | – | < 0.02 | – | –
O=S(=O)(c1ccccc1)n1ccc2cnc(Nc3ccc(N4CCNCC4)cc3)nc21 [Example 224] | – | > 1 | < 0.02 | < 0.02 | < 0.02 | –
CC(=O)OC1CCN(c2ccc(Nc3ncc4ccn(S(=O)(=O)c5cccc6cccnc56)c4n3)cc2)CC1 [Example 454] | > 1 | – | – | – | – | < 0.02
O=S(=O)(c1cccc2cccnc12)n1ncc2cnc(Nc3ccc(N4CCC(O)CC4)cc3)nc21 [Example 411] | > 1 | – | – | – | – | < 0.02
CN(c1ccccc1Cn1ccc2cnc(Nc3ccc(C4CNC(=O)CO4)cc3)nc21)S(C)(=O)=O (centres unmarked) [Example 676] | > 1 | – | – | < 0.02 | – | –
Cc1cc(Nc2ncc3cnn(S(=O)(=O)c4cccc5cccnc45)c3n2)ccc1N1CCC(O)CC1 [Example 406] | > 1 | – | – | – | – | < 0.02
CN(c1ccccc1Cn1ccc2cnc(Nc3ccc4[nH]c(=O)oc4c3)nc21)S(C)(=O)=O [Example 457] | > 1 | – | – | – | – | –
CN(c1ccccc1Cn1ccc2cnc(Nc3ccc(N4CCC(O)CC4)cc3)nc21)S(C)(=O)=O [Example 434] | > 1 | – | – | < 0.02 | – | < 0.02
Cc1cc(Nc2cc3c(ccn3S(=O)(=O)c3cccc4cccnc34)cn2)ccc1N1CCNCC1 [Example 334] | > 1 | – | – | < 0.02 | – | < 0.02
CN(c1ccccc1Cn1ccc2cnc(Nc3ccc(N4CCCC(O)C4)cc3)nc21)S(C)(=O)=O (centres unmarked) [Example 750] | > 1 | – | – | – | – | < 0.02
CC(=O)N1CCN(c2ccc(Nc3ncc4ccn(Cc5ccccc5N(C)S(C)(=O)=O)c4n3)cc2)C[C@H]1C [Example 458] | > 1 | – | – | – | – | < 0.02
C[C@@H]1CN(c2ccc(Nc3ncc4ccn(Cc5ccccc5N(C)S(C)(=O)=O)c4n3)cc2)CCN1C [Example 486] | > 1 | – | – | < 0.02 | – | < 0.02
O=C1CCc2cc(Nc3cc4c(ccn4S(=O)(=O)c4ccccc4OC(F)(F)F)cn3)ccc2N1 [Example 59] | – | > 1 | > 1 | > 1 | > 1 | –

Structure (SMILES) | EC50 (Phospho Src(Y416)) [µM] | EC50 [1] [µM] | IC50 (Recombinant Src enzyme) [µM] | IC50 (AURKB (Aurora B) enzyme) [µM] | IC50 (JAK2) [µM] | IC50 (recombinant human FAK1) [µM]
CN(c1ccccc1Cn1ccc2cnc(Nc3ccc4c(c3)OCC(=O)N4)nc21)S(C)(=O)=O [Example 539] | > 1 | – | – | – | – | < 0.02
O=C1CCc2cc(Nc3ncc4ccn(S(=O)(=O)c5ccccc5Cl)c4n3)ccc2N1 [Example 199] | > 1 | – | – | < 0.02 | – | < 0.02
CN(c1ncccc1Cn1ccc2cnc(Nc3cccc4ncccc34)nc21)S(C)(=O)=O [Example 160] | > 1 | – | > 1 | – | – | –
COc1cc(Nc2ncc3ccn(S(=O)(=O)c4cccc5cccnc45)c3n2)ccc1N1CCOCC1 [Example 432] | > 1 | – | – | – | – | < 0.02
O=C(Nc1ccc(Nc2ncc3ccn(S(=O)(=O)c4cccc5cccnc45)c3n2)cc1)C1CC1 [Example 331] | > 1 | – | – | < 0.02 | – | < 0.02
COc1ccccc1S(=O)(=O)n1ccc2cnc(Nc3ccc(N4CCN(C(=O)C5CC5)CC4)cc3)nc21 [Example 350] | > 1 | – | – | – | – | < 0.02
CN(C)S(=O)(=O)c1ccccc1Cn1ccc2cnc(Nc3ccc4c(c3)CCC(=O)N4)nc21 [Example 137] | > 1 | – | – | < 0.02 | – | < 0.02
C[C@H]1CN(c2ccc(Nc3ncc4c(n3)N(S(=O)(=O)c3cccc5cccnc35)CC4(C)C)cc2)CCN1 [Example 473] | > 1 | – | – | – | – | < 0.02
O=C1CCc2cc(Nc3ncc4ccn(S(=O)(=O)c5ccccc5OC(F)F)c4n3)ccc2N1 [Example 151] | > 1 | – | – | – | – | < 0.02
CC(=O)N1CCN(c2ccc(Nc3ncc4ccn(Cc5ccccc5N(C)S(C)(=O)=O)c4n3)cc2)CC1 [Example 465] | > 1 | – | – | < 0.02 | – | < 0.02
COC1CCN(c2ccc(Nc3ncc4ccn(S(=O)(=O)c5cccc6cccnc56)c4n3)cc2)CC1 [Example 412] | > 1 | – | – | < 0.02 | – | < 0.02
CC(=O)N1CCN(c2ccc(Nc3ncc4ccn(S(=O)(=O)c5cccc6cccnc56)c4n3)cc2)C[C@@H]1C [Example 449] | > 1 | – | – | – | – | < 0.02
CN(c1ncccc1Cn1ccc2cnc(Nc3ccc(N4CCN5C(=O)CCC5C4)cc3)nc21)S(C)(=O)=O (centres unmarked) [Example 408] | > 1 | – | – | < 0.02 | – | –
COc1ccccc1Nc1ncc2ccn(Cc3cccnc3N(C)S(C)(=O)=O)c2n1 [Example 154] | – | > 1 | > 1 | > 1 | > 1 | –
NC(=O)CN1CCC(c2ccc(Nc3ncc4ccn(S(=O)(=O)c5cccc6cccnc56)c4n3)cc2)CC1 [Example 256] | > 1 | – | – | < 0.02 | – | < 0.02
CC(=O)OC1CCN(c2ccc(Nc3ncc4c(n3)N(S(=O)(=O)c3cccc5cccnc35)CC4(C)C)cc2)CC1 [Example 453] | > 1 | – | – | – | – | –
Cc1cn(S(=O)(=O)c2cccc3cccnc23)c2nc(Nc3ccc(N4CCC(N(C)C)CC4)cc3)ncc12 [Example 712] | > 1 | – | – | < 0.02 | – | < 0.02
